Reference: patent US20110135772A1, “SKIN CARE AGENT AND COMPOSITIONS THEREOF” (priority 2009, published 2011)

Molecular target: elastase (Sus scrofa, UniProt P00772)
Assay: Elastase inhibition assay (succinyl-L-alanyl-L-alanyl-L-alanyl-p-nitroanilide hydrolysis, 410 nm)
Type: biochemical
Procedure: 300 μl (0.6 mg) of succinyl-L-alanyl-L-alanyl-L-alanyl-p-nitroanilide (the enzyme substrate), 1200 μl of buffer and varying amounts of the elastase inhibitor under testing are incubated at 37° C. for 20 minutes. The hydrolysis is measured by the spectrophotometric measurement of the release of p-nitroaniline at a wavelength of 410 nm.
The anti-aging activity of the individual molecules along with different combinations were studied and the results mentioned in Table.2

Chain of elastase (P00772 27-266): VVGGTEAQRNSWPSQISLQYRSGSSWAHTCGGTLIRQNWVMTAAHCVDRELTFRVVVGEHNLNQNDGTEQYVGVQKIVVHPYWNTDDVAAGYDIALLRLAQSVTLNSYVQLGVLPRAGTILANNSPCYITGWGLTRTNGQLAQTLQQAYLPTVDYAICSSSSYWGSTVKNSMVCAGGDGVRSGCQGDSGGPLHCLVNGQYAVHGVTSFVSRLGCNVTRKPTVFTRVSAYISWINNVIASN

`O=C(OC[C@H]1O[C@@H](OC(=O)c2cc(O)c(O)c(O)c2)[C@H](OC(=O)c2cc(O)c(O)c(O)c2)[C@@H](OC(=O)c2cc(O)c(O)c(O)c2)[C@@H]1OC(=O)c1cc(O)c(O)c(O)c1)c1cc(O)c(O)c(O)c1` [Formula 3, pentagalloyl glucose] was tested, and the Inhibition (at 70 μg/ml) was 56.6% at 70 μg/ml and the “% Inhibition” value (synergistic studies, ratio Pentagalloyl glucose:Methyl gallate, concentration not given) was 49%.
